Measurements reported in patent publication US20230028441A1, “NOVEL HETEROARYL-TRIAZOLE COMPOUNDS AS PESTICIDES” (Bayer Aktiengesellschaft, priority 2019, published 2023).

How the values were obtained:
Type in all cases: in vivo
[1] = tested on: green peach aphid (Myzus persicae); assay: Myzus persicae oral test; settings: 120 h
Description: Solvent: 100 parts by weight acetone
To produce a suitable preparation of active compound, 1 part by weight of active compound is mixed with the stated amount of solvent, and the concentrate is diluted with water to the desired concentration.
50 μL compound solution is filled in microtiter plates and 150 μL IPL41 insect medium (33%+15% sugar) is added to obtain a total volume of 200 μL per well. Afterwards the plates are sealed with parafilm through which a mixed population of the green peach aphid (Myzus persicae) can suck on the compound preparation.
After 5 days mortality in % is determined. 100% means all aphids have been killed and 0% means none of the aphids have been killed.

[2] = tested on: larvae of the southern green stink bug (Nezara viridula); assay: Nezara viridula spray test; settings: in Hordeum vulgare, 96 h
Description: (§1) Solvent: 78.0 parts by weight of acetone • • 1.5 parts by weight of dimethylformamide
(§2) Emulsifier: alkylarylpolyglycol ether
(§3) To produce a suitable preparation of active compound, 1 part by weight of active compound is mixed with the stated amount of solvent, and the concentrate is diluted with water, containing an emulsifier concentration of 1000 ppm, to the desired concentration. Further test concentrations are prepared by dilution with emulsifier containing water.
Barley plants (Hordeum vulgare) infested with larvae of the southern green stink bug (Nezara viridula) are sprayed with a test solution containing the desired concentration of the active ingredient.
After 4 days mortality in % is determined. 100% means all the stink bugs have been killed; 0% means none of the stink bugs have been killed.

[3] = tested on: adult engorged female ticks (Rhipicephalus microplus); assay: Rhipicephalus (Boophilus) microplus injection test; settings: 168 h, egg deposition after 7 days, read-out: efficacy (infertile eggs); for pest or weed control at 0.004 mg: 4 μg/animal; for pest or weed control at 0.02 mg: 20 μg/animal
Description: (§4) Solvent: dimethyl sulfoxide
To produce a suitable preparation of active compound, 10 mg of active compound are dissolved in 0.5 mL solvent, and the concentrate is diluted with solvent to the desired concentration.
Five adult engorged female ticks (Rhipicephalus microplus) are injected with 1 μL compound solution into the abdomen. The ticks are transferred into replica plates and incubated in a climate chamber.
After 7 days egg deposition of fertile eggs is monitored. Eggs where fertility is not visible are stored in a climate chamber till hatching after about 42 days. An efficacy of 100% means all eggs are infertile; 0% means all eggs are fertile.

[4] = tested on: adult unfed cat fleas (Ctenocephalides felis); assay: Ctenocephalides felis oral test; settings: 48 h, 100 ppm in cattle blood, after 2 days
Description: as §4
To produce a suitable preparation of active compound, 10 mg of active compound are dissolved in 0.5 mL solvent, and the concentrate is diluted with cattle blood to the desired concentration.
Approximately 20 adult unfed cat fleas (Ctenocephalides felis) are placed in flea chambers. The blood chamber, sealed with parafilm on the bottom, are filled with cattle blood supplied with compound solution and placed on the gauze covered top of the flea chamber, so that the fleas are able to suck the blood. The blood chamber is heated to 37° C. whereas the flea chamber is kept at room temperature.
After 2 days mortality in % is determined. 100% means all the fleas have been killed; 0% means none of the fleas have been killed.

[5] = tested on: larvae of the banded cucumber beetle (Diabrotica balteata); assay: Diabrotica balteata spray test; settings: 168 h, 100 g/ha (=32 μg/well), after 7 days, wheat seeds, read-out: efficacy (seedlings grown up)
Description: as §1, §2, §3
Soaked wheat seeds (Triticum aestivum) are placed in a multiple well plate filled with agar and some water and are incubated for 1 day to germinate (5 seeds per well). The germinated wheat seeds are sprayed with a test solution containing the desired concentration of the active ingredient. Afterwards each unit is infected with 10-20 larvae of the banded cucumber beetle (Diabrotica balteata).
After 7 days efficacy in % is determined. 100% means all the seedlings have grown up like in the untreated, uninfected control; 0% means none of the seedlings have grown.

[6] = tested on: cattle tick larvae (Rhipicephalus microplus), strain Parkhurst, resistant against synthetic pyrethroids; assay: Rhipicephalus (Boophilus) microplus in-vitro contact test, larval cattle tick; settings: 5 μg/cm^2 (=500 g/ha), after 48 hours, read-out: efficacy (larvae dead or moribund)
Description: (§5) 9 mg compound is solved in 1 mL acetone and diluted with acetone to the desired concentration. 250 μL of the test solution is filled in 25 mL glass test tubes and homogeneously distributed on the inner walls by rotation and tilting on a shaking device (2 h at 30 rpm). With a compound concentration of 900 ppm, an inner surface of 44.7 cm^2 and a homogeneous distribution, a dose of 5 μg/cm^2 is achieved.
After the solvent has evaporated, each test tube is filled with 20-50 cattle tick larvae (Rhipicephalus microplus), closed with a perforated lid and incubated in a horizontal position at 85% relative humidity and 27° C. in an incubator. After 48 hours efficacy is determined. The larvae are patted on the ground of the tubes and negative geotactic behaviour is recorded.
An efficacy of 100% means all larvae are dead or moribund; 0% means no larvae are dead or moribund.

[7] = tested on: fall armyworm larvae (Spodoptera frugiperda); assay: Spodoptera frugiperda spray test (maize leaf sections); settings: 168 h
Description: Solvent: 78.0 parts by weight acetone • 1.5 parts by weight dimethylformamide
as §2
as §3, with “solvents” for “solvent,”, “and” for “and the concentrate”
Maize (Zea mays) leaf sections are sprayed with a preparation of the active ingredient of the desired concentration. Once dry, the leaf sections are infested with fall armyworm larvae (Spodoptera frugiperda).
After 7 days mortality in % is determined. 100% means all caterpillars have been killed and 0% means none of the caterpillars have been killed.

[8] = tested on: adult brown dog ticks (Rhipicephalus sanguineus); assay: Rhipicephalus sanguineus in-vitro contact test with adult brown dog ticks; settings: after 48 hours, read-out: efficacy (ticks dead or moribund); for pest or weed control at 5 µg/cm2, 500 g/ha: 5 μg/cm^2 (=500 g/ha)
Description: as §5
After the solvent has evaporated, each test tube is filled with 5-10 adult brown dog ticks (Rhipicephalus sanguineus), closed with a perforated lid and incubated in a lying position at room temperature and relative humidity. After 48 hours efficacy is determined. The ticks are patted on the ground of the tubes and are incubated on a heating plate at 45-50° C. for at most 5 minutes. Immotile or uncoordinated moving ticks, which are not able to escape the heat by climbing upwards, are marked as dead or moribund.
An efficacy of 100% means all ticks are dead or moribund; 0% means no ticks are dead or moribund.

SMILES | mortality at 4 ppm [1] | pest or weed control at 0.004 mg [3] | pest or weed control at 0.02 mg [3] | mortality at 100 ppm [4] | pest or weed control at 32 µg/disc, 100 g/ha [5] | mortality at 100 g/ha [7] | other results
CC(NC(=O)c1cc(Cl)cc(S(C)(=O)=O)c1)c1nc(NS(C)(=O)=O)nn1-c1ccc(Cl)cn1 (racemic) [I-025, 3-chloro-N-[1-[2-(5-chloro-2-pyridyl)-5-(methanesulfonamido)-1,2,4-triazol-3-yl]ethyl]-5-methylsulfonyl-benzamide] | 90% | – | – | – | – | – | –
CC(NC(=O)c1cc(Cl)cc(S(C)(=O)=O)c1)c1nc(S(C)(=O)=O)nn1-c1ccc(Cl)cn1 (racemic) [I-060, 3-chloro-N-[1-[2-(5-chloro-2-pyridyl)-5-methylsulfonyl-1,2,4-triazol-3-yl]ethyl]-5-methylsulfonyl-benzamide] | 100% | 100% | 100% | – | – | – | mortality at 100 g/ha [2]: 100%; mortality at 500 g/ha [2]: 100%
CC(NC(=O)c1cc(C(F)(F)F)cc(C(F)(F)F)c1)c1nc(Cc2ccccc2)nn1-c1ncccn1 (racemic) [I-082, N-[1-(5-benzyl-2-pyrimidin-2-yl-1,2,4-triazol-3-yl)ethyl]-3,5-bis(trifluoromethyl)benzamide] | – | 100% | – | 100% | 80% | – | –
CC(NC(=O)c1cc(Cl)cc(S(C)(=O)=O)c1)c1nc(N)nn1-c1ccc(Cl)cn1 (stereo not shown) [I-005] | 90% | 100% | 100% | 100% | – | – | –
CC(NC(=O)c1cc(Cl)cc(C(F)(F)F)c1)c1nc(NC(=O)C2(Cl)CC2)nn1-c1ccc(Cl)cn1 (stereo not shown) [I-014] | – | 100% | 100% | 100% | – | 100% | pest or weed control at 5 µg/cm2 [6]: 100%; mortality at 500 g/ha [7]: 100%
CC(NC(=O)c1cc(Cl)cc(S(C)(=O)=O)c1)c1nc(NC(=O)C2(Cl)CC2)nn1-c1ncccn1 (stereo not shown) [I-020] | 90% | 100% | – | 100% | – | – | –
CC(NC(=O)c1cc(Cl)cc(S(C)(=O)=O)c1)c1nc(NC(=O)C2CC2(F)F)nn1-c1ncccn1 (stereo not shown) [I-021] | – | 80% | – | 100% | – | – | mortality at 100 g/ha [2]: 90%
CC(NC(=O)c1cc(Cl)cc(C(F)(F)F)c1)c1nc(NC(=O)C2CC2)nn1-c1ncccn1 (stereo not shown) [I-023] | 100% | – | – | – | 100% | 100% | mortality at 100 g/ha [2]: 90%
CC(NC(=O)c1cc(Cl)cc(C(F)(F)F)c1)c1nc(NC(=O)[C@@H]2C[C@@H]2F)nn1-c1ncccn1 (stereo partly shown) [I-024] | 100% | – | – | – | 100% | 100% | –
CC(NC(=O)c1cc(Cl)cc(C(F)(F)F)c1)c1nc(-c2ccc(Cl)nc2)nn1-c1ccc(Cl)cn1 (stereo not shown) [I-032] | – | – | – | – | – | – | pest or weed control at 5 µg/cm2, 500 g/ha [8]: 80%
CC(NC(=O)c1cc(Cl)nc(Cl)c1)c1nc(-c2cnccn2)nn1-c1ccc(Cl)cn1 (stereo not shown) [I-035] | – | – | 100% | 100% | – | – | pest or weed control at 5 µg/cm2 [6]: 100%
CC(NC(=O)c1cc(Br)cc(C(F)(F)F)c1)c1nc(-c2cnccn2)nn1-c1ccc(Cl)cn1 (stereo not shown) [I-036] | – | – | 100% | 100% | – | 100% | pest or weed control at 5 µg/cm2 [6]: 100%; mortality at 500 g/ha [7]: 100%
CC(NC(=O)c1cc(Cl)cc(C(F)(F)F)c1)c1nc(-c2cnccn2)nn1-c1ccc(Cl)cn1 (stereo not shown) [I-040] | – | 100% | 100% | 100% | – | – | pest or weed control at 5 µg/cm2 [6]: 100%
CC(NC(=O)c1cc(Cl)cc(Cl)c1)c1nc(-c2cnccn2)nn1-c1ncccn1 (stereo not shown) [I-046] | – | 100% | 100% | 100% | – | – | mortality at 500 g/ha [7]: 100%
CC(NC(=O)c1cc(Cl)cc(C(F)(F)F)c1)c1nc(-c2cnccn2)nn1-c1ncccn1 (stereo not shown) [I-047] | – | 100% | 100% | 100% | – | – | mortality at 500 g/ha [7]: 83%
CC(NC(=O)c1cc(Br)cc(C(F)(F)F)c1)c1nc(-c2cnccn2)nn1-c1ncccn1 (stereo not shown) [I-048] | – | 100% | – | 100% | – | – | mortality at 500 g/ha [7]: 83%
CC(NC(=O)c1cncc(C(F)(F)F)c1)c1nc(-c2ncccn2)nn1-c1ncccn1 (stereo not shown) [I-053] | 90% | – | – | 100% | – | – | –
CC(NC(=O)c1cc(Cl)nc(C(F)(F)F)c1)c1nc(-c2ncccn2)nn1-c1ncccn1 (stereo not shown) [I-056] | – | 80% | 100% | 100% | – | – | –
CC(NC(=O)c1cc(Cl)cc(C(F)(F)F)c1)c1nc(C#N)nn1-c1ccc(C#N)cn1 (stereo not shown) [I-081] | – | 100% | – | 90% | 100% | – | pest or weed control at 5 µg/cm2 [6]: 100%
CC(NC(=O)c1cc(Cl)cc(C(F)(F)F)c1)c1nc(Cc2ccccc2)nn1-c1ncccn1 (stereo not shown) [I-083] | – | – | – | 90% | 100% | – | –
CC(NC(=O)c1cc(Br)cc(Br)c1)c1nc(N)nn1-c1ncccn1 (stereo not shown) [I-094] | 100% | – | – | – | – | 100% | –
CC(NC(=O)c1cc(Cl)cc(Br)c1)c1nc(N)nn1-c1ncccn1 (stereo not shown) [I-108] | 100% | – | – | – | 100% | 100% | pest or weed control at 5 µg/cm2 [6]: 90%
CNc1nc([C@H](C)NC(=O)c2cc(C(F)(F)F)cc(C(F)(F)F)c2)n(-c2ncc(C(=O)N3CCOCC3)s2)n1 [I-126, N-[(1S)-1-[5-(methylamino)-2-[5-(morpholine-4-carbonyl)thiazol-2-yl]-1,2,4-triazol-3-yl]ethyl]-3,5-bis(trifluoromethyl)benzamide] | – | – | – | – | 100% | 100% | pest or weed control at 5 µg/cm2, 500 g/ha [8]: 80%; mortality at 500 g/ha [2]: 100%
CC(NC(=O)c1cc(Cl)cc(C(C)(C)C#N)c1)c1nc(N2CCOCC2)nn1-c1ccc(C#N)cn1 (stereo not shown) [I-159] | – | – | – | – | 100% | 100% | pest or weed control at 1 µg/cm2, 100 g/ha ([8]; 1 μg/cm^2 (=100 g/ha)): 100%; pest or weed control at 5 µg/cm2 [6]: 100%; mortality at 500 g/ha [2]: 90%
